The results in this text go back to ChEMBL document CHEMBL1146108, “Discovery of novel and selective tertiary alcohol containing inhibitors of the norepinephrine transporter” (Bioorg Med Chem Lett, 2006).

The target in data set [1] is T1, Sodium-dependent noradrenaline transporter (Homo sapiens, UniProt P23975). Description: Binding affinity to NET at 100 nM.
Data set [2] has as its target Sodium-dependent serotonin transporter (Homo sapiens) (UniProt P31645). Description: Displacement of [3H]5-HT from SERT at 100 nM.
Data set [3] addresses Sodium-dependent dopamine transporter (Homo sapiens) (UniProt Q01959). Description: Displacement of […] from DAT at 1000 nM. For orientation: Loss of bound radioactivity is the signal in a displacement assay; it reports binding, not function.
Data set [4] deals with T1, Sodium-dependent noradrenaline transporter. Description: Binding affinity to NET.
For data set [5], the system named is Liver microsomes. Description: Stability in rat liver microsome. The class given is ADME.
For data set [6], the species on record is Canis familiaris. Nature of the data set: Stability in dog liver microsome. Type of data set: ADME, Canis lupus familiaris.
Data set [7] relates to Liver microsomes. Nature of the data set: Stability in human liver microsome. Type of data set: ADME.
The test system of data set [8] is Rattus norvegicus. Description: Ability to block alpha-MMT-induced depletion of cortical norepinephrine concentration in Sprague-Dawley rat at 3 mg/kg, sc. Type of data set: functional. The note with it: route subcutaneous.
The test system of data set [9] is Rattus norvegicus. Description: Ability to block alpha-MMT-induced depletion of cortical norepinephrine concentration in orally dosed Sprague-Dawley rat. The class given is functional. Conditions: po.

Where “and” joins values, the source holds several entries; their conditions need not be identical. Identical values can stand only once.

Sodium-dependent dopamine transporter (Homo sapiens), sequence (Q01959 whole entry): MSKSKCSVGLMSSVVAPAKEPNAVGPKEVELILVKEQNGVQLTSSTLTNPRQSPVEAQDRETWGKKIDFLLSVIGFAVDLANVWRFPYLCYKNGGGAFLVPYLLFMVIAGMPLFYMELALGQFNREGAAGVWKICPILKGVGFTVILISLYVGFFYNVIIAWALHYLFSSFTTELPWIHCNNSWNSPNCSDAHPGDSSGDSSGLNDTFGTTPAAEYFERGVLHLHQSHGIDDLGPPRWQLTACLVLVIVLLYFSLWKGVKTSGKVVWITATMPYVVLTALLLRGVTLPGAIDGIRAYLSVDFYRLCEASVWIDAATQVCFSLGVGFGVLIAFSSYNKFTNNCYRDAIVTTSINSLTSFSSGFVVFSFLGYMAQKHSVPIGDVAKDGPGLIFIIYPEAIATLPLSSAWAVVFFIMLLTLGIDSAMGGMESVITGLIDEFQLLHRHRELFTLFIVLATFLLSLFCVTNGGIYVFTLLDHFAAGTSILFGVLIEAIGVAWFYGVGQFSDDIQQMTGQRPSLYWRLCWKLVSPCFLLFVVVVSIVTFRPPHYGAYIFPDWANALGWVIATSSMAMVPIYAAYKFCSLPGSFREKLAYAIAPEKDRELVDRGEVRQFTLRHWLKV
Sodium-dependent serotonin transporter (Homo sapiens), sequence (P31645 whole entry, looked up): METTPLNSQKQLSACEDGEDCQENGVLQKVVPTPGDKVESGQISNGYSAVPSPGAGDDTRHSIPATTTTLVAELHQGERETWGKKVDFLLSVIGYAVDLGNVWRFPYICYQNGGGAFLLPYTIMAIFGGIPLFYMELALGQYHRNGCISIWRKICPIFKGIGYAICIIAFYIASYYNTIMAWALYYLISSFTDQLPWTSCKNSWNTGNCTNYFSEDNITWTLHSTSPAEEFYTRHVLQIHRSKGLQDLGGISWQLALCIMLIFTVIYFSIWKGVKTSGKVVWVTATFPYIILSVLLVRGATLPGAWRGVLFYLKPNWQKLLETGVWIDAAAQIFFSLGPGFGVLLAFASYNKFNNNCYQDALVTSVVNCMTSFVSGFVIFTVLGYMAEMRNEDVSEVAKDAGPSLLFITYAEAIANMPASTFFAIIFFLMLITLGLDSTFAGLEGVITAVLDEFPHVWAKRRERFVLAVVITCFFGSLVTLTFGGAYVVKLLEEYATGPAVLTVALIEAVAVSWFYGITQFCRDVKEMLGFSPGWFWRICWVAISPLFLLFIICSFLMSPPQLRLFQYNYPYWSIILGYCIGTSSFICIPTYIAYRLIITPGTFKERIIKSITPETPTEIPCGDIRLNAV
T1 sequence (P23975 whole entry): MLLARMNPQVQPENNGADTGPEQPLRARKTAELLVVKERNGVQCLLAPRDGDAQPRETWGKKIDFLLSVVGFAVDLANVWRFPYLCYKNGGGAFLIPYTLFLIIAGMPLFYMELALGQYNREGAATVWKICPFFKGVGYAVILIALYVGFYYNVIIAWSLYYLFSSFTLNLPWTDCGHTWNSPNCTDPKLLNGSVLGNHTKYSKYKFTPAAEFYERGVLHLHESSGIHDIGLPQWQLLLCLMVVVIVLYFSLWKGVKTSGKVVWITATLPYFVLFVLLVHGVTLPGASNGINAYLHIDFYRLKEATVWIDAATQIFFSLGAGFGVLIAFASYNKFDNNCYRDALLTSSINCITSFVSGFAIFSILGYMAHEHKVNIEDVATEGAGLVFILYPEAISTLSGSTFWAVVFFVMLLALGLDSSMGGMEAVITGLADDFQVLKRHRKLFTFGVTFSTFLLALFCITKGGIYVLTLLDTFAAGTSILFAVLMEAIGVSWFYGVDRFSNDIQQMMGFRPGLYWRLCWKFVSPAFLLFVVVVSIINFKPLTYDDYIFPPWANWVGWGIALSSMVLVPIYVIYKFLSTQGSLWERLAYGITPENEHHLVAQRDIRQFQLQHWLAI

As usually defined, the inhibition is the change of the read-out against control, counted positive when it falls. With `COc1cccc(C[C@@](O)(c2ccccc2)[C@@H]2CNCCO2)c1`, the figures for the inhibition in [1], in data set [2] and in data set [3] were 19.8%, 2.8% and 4.3%, respectively.

The Ki is a measure of affinity in units of concentration, obtained from inhibition or displacement. As a reminder, the ED50 is the midpoint of the dose-response relation. In turn, `COc1ccccc1C[C@@](O)(c1ccccc1)[C@@H]1CNCCO1.Cl.Cl.Cl` showed a Ki in data set [4] of 3.2 nM. The Stability in data set [5] was determined as 0%; in [6], 60%; in data set [7] it was 98%. This compound yielded an Activity in [8] of 70%. The compound further displayed an ED50 in data set [9] of 18 mg/kg.

The compound `O[C@](Cc1ccccc1Br)(c1ccccc1)[C@@H]1CNCCO1` had a Ki in data set [4] of 11.9 nM. The inhibition in data set [2] is 13%; in data set [3] it was 24.1%.

With `COc1ccccc1C[C@@](O)(c1ccccc1)[C@@H]1CNCCO1` (single isomer, unassigned; isomer 2) [listing 1 of 2 here], the results for the inhibition in [2] and in data set [3] were 0.3% and 4.6%, respectively.

In turn, `O[C@](Cc1ccccc1SC(F)(F)F)(c1ccccc1)[C@@H]1CNCCO1` had a Ki in data set [4] of 54.4 nM. Besides, the results for the inhibition in data set [2] and in data set [3] were 14.8% and 6.2%, respectively.

Consider `COc1ccccc1C[C@@](O)(c1ccccc1)[C@@H]1CNCCO1` (single isomer, unassigned; isomer 2) [listing 2 of 2 here], for which the affinity in data set [4] corresponds to a Ki of 156 nM.

Turning to `COc1ccccc1C[C@@](O)(c1ccccc1)[C@@H]1CNCCO1` [listing 1 of 3 here], the affinity in [4], expressed as Ki, was 161 nM.

Take `O[C@](Cc1ccccc1Cl)(c1ccccc1)[C@@H]1CNCCO1`: the affinity in data set [4] corresponds to a Ki of 30 nM. Also, the figures for the inhibition in [2] and in data set [3] were 4.6% and 20.8%, respectively.

`CCOc1ccccc1C[C@@](O)(c1ccccc1)[C@@H]1CNCCO1` displayed an inhibition constant (Ki) in data set [4] of 5.2 nM. Besides, the values for the inhibition in data set [2] and in [3] were 2.4% and 3.8%, respectively.

Turning to `COc1ccc(C[C@@](O)(c2ccccc2)[C@@H]2CNCCO2)cc1`, the inhibition in data set [1] amounted to 25.2%; in data set [2], 4.3%; in [3], 6.2%.

Turning to `CC(C)Oc1ccccc1C[C@@](O)(c1ccccc1)[C@@H]1CNCCO1`, the inhibition constant (Ki) in [4] was determined as 7.7 nM. The results for the inhibition in data set [2] and in data set [3] were 2.7% and 5.1%, respectively.

Consider `COc1ccccc1C[C@@](O)(c1ccccc1)[C@@H]1CNCCO1` [listing 2 of 3 here], for which the inhibition is 5% and 5.5% and 1.4% in data set [2]; 4.7% and 3.8% and 3.7% in data set [3].

In [4], `O[C@](Cc1ccccc1-c1ccccc1)(c1ccccc1)[C@@H]1CNCCO1` (single isomer, unassigned) came in with a Ki of 3.7 nM. Further, the inhibition in data set [2] turned out to be 3%; in [3] it was 2.9%.

In turn, `COc1ccccc1C[C@@](O)(c1ccccc1)[C@@H]1CNCCO1` [listing 3 of 3 here] gave a Ki in data set [4] of 56 nM.

With `O[C@](Cc1ccccc1)(c1ccccc1)[C@@H]1CNCCO1`, the affinity in data set [4], expressed as Ki, was 148 nM. Besides, the inhibition came out at 4.2% in data set [2] and 5.5% in [3].
